The subject of one data set is human pancreatic islets. Description: Insulin secretion from human pancreatic islets at low and high glucose. The format is cell-based. As to conditions: 1 μM; low glucose 2 mM vs high glucose 20 mM. On the procedure: (§1) Mouse pancreatic islets were treated with a low, non-stimulatory glucose concentration (2.5 mM) or a high, stimulatory glucose concentration (25 mM) in the absence or presence of 1 μM or 10 μM dextrorphan. Insulin secretion was determined as percent of […] glucose control, and values are expressed as means+/−SD (N=3). The asterisks (*) indicate p values smaller than 0.05 in Student's t-tests.
Example 1 was repeated but the mouse pancreatic islets were replaced by human pancreatic islets.
Low Glucose (2 mM); High Glucose (20 mM); the asterisks (*) indicate p values smaller than 0.05 in Student's t-tests.

The test system of the next data set is mouse pancreatic islets. The experiment in a line: Insulin secretion from mouse pancreatic islets at low and high glucose. The format is cell-based. As to conditions: comparison of DXO, DXM and LEV. On the procedure:
as §1
Low Glucose (2.5 mM); High Glucose (25 mM); p<0.05 (Student's t-Test), N=3.
Example 1 was repeated in order to compare dextrorphan, dextromethorphan, and levorphanol with one another.

The next data set concerns diabetics. As to conditions: long-term experience; cited from earlier work.
The subject of data set [1] is painful diabetic neuropathy. As to conditions: in vivo; cited from earlier work.
For data set [2], the system named is children with severe bacterial meningitis. As to conditions: 36 mg kg^−1 day^−1; two children, also on glucocorticoids; cited from earlier work.
Data set [3] has as its system db/db mouse (an animal model for human type 2 diabetes mellitus). The experiment in a line: Long-term treatment of db/db mice with dextromethorphan in drinking water. The class given is in vivo. An excerpt: Therefore, long-term treatment with dextromethorphan is beneficial for beta cell function and blood glucose control in a mouse model for human type 2 diabetes mellitus.

Data set [4] deals with male subjects with type 2 diabetes mellitus. The experiment in a line: Clinical trial, oral single dose followed by oral glucose tolerance test (OGTT). The format is in vivo, human. On the procedure:
The study was designed as a randomized, double-blind, placebo-controlled crossover study to investigate the glucose lowering effect of oral single doses of DXM 270 mg (FIG. 10) and DXM 60 mg (FIG. 11) vs. placebo in subjects with T2DM following an oral glucose tolerance test (OGTT). DXM 270 mg, DXM 60 mg or placebo was administered orally at 0 minutes. OGTT was started at 60 minutes (75 g glucose orally). Blood glucose levels were measured at the indicated times. n=20 male with T2DM on a stable regimen of metformin monotherapy, between 45 and 70 years of age, with a BMI between 25 and 35 kg/m2, HbA1c between 7 and 8%. Student's t-test. *p=0.01, **p<0.001All values are means±SD.

Where [5] appears, read: 3 mg/ml in drinking water, 8 weeks, compared to low dose 1 mg/ml.

Entries after “also recorded” stand apart in the source; their conditions may differ.

Take `COc1ccc(Cl)cc1C(=O)NCCc1ccc(S(=O)(=O)NC(=O)NC2CCCCC2)cc1` [glibenclamide]: the “insulin secretion, basal and glucose-stimulated” value in the data set with human pancreatic islets is “increases both basal (2 mM glucose) and glucose-stimulated (20 mM glucose) insulin secretion”.

With `CN1CC[C@]23CCCC[C@H]2[C@H]1Cc1ccc(O)cc13` [levorphanol], in the data set on mouse pancreatic islets, the “glucose-dependent insulin secretion, compared with levorphanol” value was “not the levorotatory (−) stereoisomer that mainly targets opioid receptors, increases glucose-dependent insulin secretion to a large extent”.

As for `CN(C)C(=N)N=C(N)N` [metformin], the “reduction of diabetes complications and mortality” value in the data set on diabetics is “about 30%”.

Take `COc1ccc2c(c1)[C@]13CCCC[C@@H]1[C@H](C2)N(C)CC3` [dextromethorphan, (+)-3-methoxy-17-methyl-(9α,13α,14α)-morphinan]: the results for the “glucose-dependent insulin secretion, compared with levorphanol” value in the data set on mouse pancreatic islets and with mouse pancreatic islets (listed as DXM) were “significantly more effective in inducing glucose-dependent insulin secretion than levorphanol” and “increase glucose-dependent insulin secretion from pancreatic islets to a significantly larger extent compared to LEV”, respectively. The “efficacy in painful diabetic neuropathy” value in data set [1] is recorded as “effective in treating painful diabetic neuropathy”. Also, the serious adverse event entry in data set [2] is “developed an insulin dependent diabetes mellitus”. In addition, the “effectiveness of the low dose” value in data set [3] (1 mg/ml in drinking water) is on record as “ineffective”. For the same molecule, the beta cell area result in data set [3] (setting [5]) is recorded as “significantly larger”. Moreover, the “insulin content of islets” value in data set [3] (setting [5]) is listed as “significantly increased; also recorded: contained significantly more insulin”. The “starving blood glucose levels” value in data set [3] (setting [5]) is recorded as “significantly improved starving blood glucose levels; also recorded: lower blood glucose levels or better blood glucose control”; in data set [4] (270 mg oral single dose), “does not affect starving blood glucose levels”. Besides, the figures for the “blood glucose levels during oral glucose tolerance test” value in data set [4] (60 mg oral single dose vs placebo) and in data set [4] (270 mg oral single dose vs placebo) were “too low a concentration” and “significantly lowers blood glucose levels after glucose uptake”, respectively. Also, the hypoglycemic events entry in data set [4] (20 patients, oral single doses) is given as “no hypoglycemic events were observed”.
